Data from patent US5759768A, “Assays for factors affecting circularization of DNA, assays for factors affecting DNA integration, factors, and uses thereof” (priority 1995, dated 1998).

Assays:
preintegration complexes = assay: Circularization mediated by partially purified preintegration complexes; assay type: biochemical, HIV-1; conditions: for circular DNA formed by preintegration complexes: 37° C., 45 min
Protocol: Viral preintegration complexes were partially purified from cytoplasmic extracts by Sephacryl S400 gel filtration chromatography. Cytoplasmic extracts (0.8 ml) were loaded onto a 22-ml Sephacryl S400 (Pharmacia) column, 28 cm in height, equilibrated in buffer K containing 0.5% Triton X-100 at 4° C. Fractions (0.5 ml) were collected at a flow rate of approximately 0.2 ml/min.
The linear viral DNA present in cytoplasmic extracts is a part of the nucleoprotein preintegration complex that can be separated from the bulk of cellular proteins by gel filtration chromatography [Farnet and Haseltine, J. Virol., 65: 1910-1915 (1991)]. Preintegration complexes were partially purified by Sephacryl S400 column chromatography and tested for the ability to mediate the circularization of viral DNA. Cytoplasmic extracts (1 ml, vol) were fractionated by Sephacryl S-400 gel filtration chromatography as previously described. The void volume fractions of the column, containing the peak of viral DNA, were pooled (total volume, 1.5 ml) and incubated as follows with the results shown in FIG. 20. Lane 1: column fractions were incubated at 37° C. for 45 minutes; lane 2: linear .phi.X174 DNA was added to column fractions to a final concentrations of 650 ng/ml and incubated at 37° C. for 45 minutes; lane 3: ATPγS was added to column fractions and incubated at 37° C. for 45 minutes; lane 4: same as lane 3, except that an equal volume of cytoplasmic extract from uninfected SupT1 cells was added prior to incubation; lane 5: ATP was added to column fractions to a final concentration of 1 mM and incubated at 37° C. for 45 minutes; lane 6: same as lane 5, except that an equal volume of cytoplasmic extract from uninfected SupT1 cells was added prior to incubation. […] Lane 1: products of the reaction shown in FIG. 20, lane 4, digested with SalI and PstI; lane 2: products of the reaction shown in FIG. 20, lane 5, digested with SalI and PstI; lane 3: products of the reaction shown in FIG. 20, lane 6, digested with SalI and PstI. […] The formation of all types of circular produts was dependent upon the addition of ATP, as viral DNA in column fractions remained linear during incubation at 37° C. in the absence of added ATP (FIG. 20, lane 1), regardless of the addition of uninfected SupT1 cell extracts.

[1] = tested on: linear viral DNA (circularization); assay type: biochemical, HIV-1
Protocol: The chronically HIV-1 infected Molt IIIB human T cell line (HTLV IIIB virus strain) was the source of virus for cell-free infections. This human T cell line constitutively produces a low level of the HTLV-111B strain of HIV-1. Culture supernatant containing a high concentration of virus was prepared by incubating 300×10^6 Molt IIIB cells in 50 ml fresh RPMI 1640 medium containing 20% fetal calf serum and 10 ng of phorbol 12-myristate 13-acetate per ml for 20-24 hours. […] Cytoplasmic extracts (3 ml) were prepared 4-4.5 hours post-infection, by a modification of the procedure of Brown et al., Cell 49: 342-356 (1987).
At specified times after infection, cells were washed twice with buffer K (20 mM Hepes, pH 7.4, 150 mM KCl, 5 mM MgCl2, 1 mM dithiothreitol, […]) and then lysed at a concentration of 33×10^6 cells per ml in the same buffer containing 0.025% digitonin or 0.025% Triton X-100. Cells were extracted for 10 minutes at room temperature, and the lysate was centrifuged at 1000×g for 3 minutes, and is referred to as "cytoplasmic extract". Cytoplasmic extract was the source of viral DNA for analyses in the assays described below. The pellet from the initial low-speed centrifugation contained cell debris and intact nuclei and is called the "nuclear pellet". Cell extracts from uninfected SupT1 cells were prepared in the same manner.
Viral DNA present in cytoplasmic extracts was deproteinated by incubation with proteinase K (1 mg/ml)/10 mM EDTA/0.5% SDS for 1 hour at 55° C. Samples were extracted successively with phenol/chloroform [1:1 (vol/vol)] and chloroform. DNA was ethanol-precipitated, washed with 70% ethanol, resuspended in 10 mM Tris.HCI (pH 7.4), and treated with RNase A (20 μpg/ml)for 1 hour at […]. before analysis by agarose gel electrophoresis and Southern blotting.
DNA samples were layered on 0.8% agarose gels and electrophoresed at 1 V/cm for 15 hour in Tris/acetate/EDTA buffer. After electrophoresis, DNA was blotted by capillary action onto nitrocellulose (0.45 μm, Schleicher & Schuell).
Cell extracts were prepared from cells four to five hours after infection with HIV-1, using the above-described methods to yield fully functional viral preintegration complexes. […] In all cases, a HIV-1 LTR-containing DNA fragment was used as a hybridization probe. Therefore, only LTR-containing DNA fragments are detected. […] Lane 5: Unintegrated viral DNA prepared by Hirt extraction of SupT1 cells infected 24 hours earlier with concentrated HIV-1. […] Viral DNA was purified from extracts incubated with 1 mM ATP for 15 minutes (lanes 1 and 4), with 1 mM ATP for 45 minutes (lanes 3 and 6), or with 1 mM ATPγS for 45 minutes (lanes 2 and 5). Lanes 1-3: uncut viral DNA; lanes 4-6: viral DNA was cut with SalI prior to electrophorosis. Lane 7: linear viral DNA, prepared from untreated extracts was digested with SalI prior to electrophorosis. Lane 8: unintegrated viral DNA prepared by Hirt extraction of infected cells, as described with respect to FIG. 14, digested with SalI prior to electrophoresis. […] Lanes 1-3. Viral DNA prepared from extracts treated with 1 mM ATP for 15 minutes, 30 minutes and 45 minutes, respectively. Lane 4: Viral DNA prepared from extract treated with 1 mM ATPγS for 45 minutes. Lanes 5-7: products of reactions shown in lanes 1-3, respectively, digested with SalI and PstI prior to electrophoresis. Lane 8: SalI, PstI digestion of viral DNA prepared from extract treated with 1 mM ATP for 90 minutes. Lane 9: SalI, PstI digestion of reaction products shown in lane 4. Lane 10: SalI, PstI digestion of unintegrated viral DNA prepared by Hirt extraction of infected cells.

Row | SMILES | 1-LTR circle formation by preintegration complexes (preintegration complexes; 1 mM ATP, plus cytoplasmic extract from uninfected SupT1 cells) | 2-LTR junction fragment from preintegration complexes (preintegration complexes; 1 mM ATP, plus uninfected SupT1 cell extract) | circular DNA formed by preintegration complexes (preintegration complexes; 1 mM, column fractions) | formation of circular viral DNA species ([1]; 1 mM, 37° C., 45 min, no target DNA) | 1-LTR circle formation ([1]; 5 mM ATP) | formation of 2-LTR circles ([1]; 5 mM ATP) | ATP concentration of peak 1-LTR circle formation ([1]; 37° C., 45 or 90 min) | optimal ATP concentration for formation of 2-LTR circles ([1]; 37° C., 45 or 90 min) | 1-LTR [ATP] optimum ([1]; table) | Autointegration [ATP] optimum ([1]; table) | circular DNA formed by preintegration complexes (preintegration complexes; in presence and absence of uninfected cell extracts) | induction of 1-LTR circular form ([1]; 1 mM, 37° C., 45 min) | induction of 2-LTR circles ([1]; 1 mM, 37° C., 45 min) | 1-LTR circles (restriction analysis) ([1]; 1 mM, 45 min) | origin of 2-LTR circles (SalI/PstI digestion) ([1]; 1 mM, 45 min) | simple 2-LTR circles (SalI/PstI digestion) ([1]; 1 mM, 45 min) | type of circular viral DNA formed ([1]; 1 mM, 45 min, restriction enzyme analysis)
1 | Nc1ncnc2c1ncn2[C@@H]1O[C@H](COP(=O)(O)OP(=O)(O)OP(=O)(O)O)[C@@H](O)[C@H]1O [ATP, adenosine triphosphate] | restored the ability to form 1-LTR circles | a small amount of new 2-LTR junction fragment was also detected | formation of only the 2-LTR circular DNA form | formation of two viral DNA species that migrated more slowly than the linear form of viral DNA | considerable | completely inhibited | 2 mM | 1 mM | 2 mM | 1 mM |  |  |  |  |  |  | 
2 | Nc1ncnc2c1ncn2[C@@H]1O[C@H](COP(=O)(O)OP(=O)(O)OP(O)(O)=S)[C@@H](O)[C@H]1O [ATPγS] |  |  |  |  |  |  |  |  |  |  | exclusive formation of autointegration 2-LTR circles | unable to induce detectable amounts of the 1-LTR circular forms | induced the formation of 2-LTR circles | no detectable 1-LTR circles | entirely the products of autointegration | absence of simple 2-LTR circles among the reaction products | exclusively of the 2-LTR type
